In BindingDB's records for doi:10.1016/j.bmcl.2007.03.076 (Tanabe Research Laboratories Usa, 2007):

Molecular target: T1, Oxysterols receptor LXR-beta (Homo sapiens, UniProt P55055)
T1 sequence (P55055 whole entry): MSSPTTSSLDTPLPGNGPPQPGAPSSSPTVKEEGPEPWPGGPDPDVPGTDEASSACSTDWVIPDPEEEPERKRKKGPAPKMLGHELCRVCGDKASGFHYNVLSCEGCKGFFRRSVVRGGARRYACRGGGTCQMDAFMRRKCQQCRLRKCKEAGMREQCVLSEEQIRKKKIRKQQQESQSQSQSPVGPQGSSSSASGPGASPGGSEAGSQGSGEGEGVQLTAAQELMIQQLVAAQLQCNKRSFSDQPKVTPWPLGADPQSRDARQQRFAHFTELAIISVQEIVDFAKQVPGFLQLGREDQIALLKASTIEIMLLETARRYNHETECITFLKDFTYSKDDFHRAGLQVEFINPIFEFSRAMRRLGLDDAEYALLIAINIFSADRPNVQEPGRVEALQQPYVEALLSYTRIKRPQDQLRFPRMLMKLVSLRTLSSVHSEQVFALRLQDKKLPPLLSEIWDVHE
Assay: HTRF Cofactor Peptide Recruitment Assay
Details: pH 7.5; 22 °C
Procedure: Polyhistidine-tagged human LXR ligand-binding domain was mixed with the test compound, biotin-SRC1 peptide, streptavidin-allophycocyanin, and europium labeled anti-polyhistidine antibody in reaction buffer, and the mixture was incubated in a 384-well assay plate format. Time-resolved fluorescence was measured at 615 and 665 nm on a LJL Analyst plate reader. The ratio of 665/615 was used to calculate EC50 values of test compounds.

- EC50: 210 nM
SMILES: CC(C)(C)OC(=O)n1c(-c2ccc3c(c2)CC(NS(=O)(=O)c2ccccc2)C3)cc2ccccc21 (stereo unspecified) [tert-butyl 2-(2-benzenesulfonamido-2,3-dihydro-1H-inden-5-yl)-1H-indole-1-carboxylate]
